Measured values taken from PubChem BioAssay AID2060904 (Molecular Pharmacology Branch, DTP, NCI, 2025).
pIC50: −log10 of the molar value. Values belong to the molecule of their own block, whether it stands above or below them.

Tested on: 349418-098-R-PDC complex spheroid viability
Assay: Anticancer human tumor 349418-098-R-PDC patient-derived lung adenocarcinoma cell line growth inhibition [RAS]
Conditions: for pIC50: curve of first compound; for viability, T/C: stronger effect = lower value
Outline: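 Multi-cell-type spheroids: tumor cells plus HUVEC endothelial cells and mesenchymal stem cells. RAS-pathway inhibitors were combined with targeted agents, each dosed in half-log steps down from clinical Cmax, or from 10 microM when Cmax was unknown.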

[1] = second compound 0.00316 µM, first compound 0.0316 µM
[2] = second compound 0.00316 µM, first compound 0.1 µM
[3] = second compound 0.00316 µM, first compound 0.316 µM
[4] = second compound 0.00316 µM, first compound 1 µM
[5] = second compound 0.01 µM, first compound 0.0316 µM
[6] = second compound 0.01 µM, first compound 0.1 µM
[7] = second compound 0.01 µM, first compound 0.316 µM
[8] = second compound 0.01 µM, first compound 1 µM
[9] = second compound 0.0316 µM, first compound 0.0316 µM
[10] = second compound 0.0316 µM, first compound 0.1 µM
[11] = second compound 0.0316 µM, first compound 0.316 µM
[12] = second compound 0.0316 µM, first compound 1 µM
[13] = second compound 0.1 µM, first compound 0.0316 µM
[14] = second compound 0.1 µM, first compound 0.1 µM
[15] = second compound 0.1 µM, first compound 0.316 µM
[16] = second compound 0.1 µM, first compound 1 µM
[17] = second compound 0.316 µM, first compound 0.0316 µM
[18] = second compound 0.316 µM, first compound 0.1 µM
[19] = second compound 0.316 µM, first compound 0.316 µM
[20] = second compound 0.316 µM, first compound 1 µM
[21] = second compound 1 µM, first compound 0.0316 µM
[22] = second compound 1 µM, first compound 0.1 µM
[23] = second compound 1 µM, first compound 0.316 µM
[24] = second compound 1 µM, first compound 1 µM
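Also: spheroids exposed to compound for seven days before viability readout.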

pIC50 (second compound 0.00316 µM): 7.11
pIC50 (second compound 0.01 µM): 6.99
pIC50 (second compound 0.0316 µM): 7.07
pIC50 (second compound 0.1 µM): 7.21
pIC50 (second compound 0.316 µM): 7.42
pIC50 (second compound 1 µM): 7.27
SMILES: CC1(O)CCCC1n1c(=O)c(C(F)F)cc2cnc(NC3CCN(S(C)(=O)=O)CC3)nc21 (stereo unspecified) + C=CC(=O)N1CCN(c2nc(OCC3CCCN3C)nc3c(F)c(-c4nc(N)cc(C)c4C(F)(F)F)c(Cl)cc23)C(C)C1
viability, T/C [1]: 75.1%
viability, T/C [2]: 43.2%
viability, T/C [3]: 22.5%
viability, T/C [4]: 17%
viability, T/C (second compound 0.00316 µM, first compound 3.16 µM): 21.8%
viability, T/C (second compound 0.00316 µM, first compound 10 µM): 4.51%
viability, T/C [5]: 59.5%
viability, T/C [6]: 52.6%
viability, T/C [7]: 33.2%
viability, T/C [8]: 17.8%
viability, T/C (second compound 0.01 µM, first compound 3.16 µM): 15.8%
viability, T/C (second compound 0.01 µM, first compound 10 µM): 3.59%
viability, T/C [9]: 74.9%
viability, T/C [10]: 44.4%
viability, T/C [11]: 27.2%
viability, T/C [12]: 19.8%
viability, T/C (second compound 0.0316 µM, first compound 3.16 µM): 24.7%
viability, T/C (second compound 0.0316 µM, first compound 10 µM): 3.03%
viability, T/C [13]: 64.8%
viability, T/C [14]: 41%
viability, T/C [15]: 18.2%
viability, T/C [16]: 25.8%
viability, T/C (second compound 0.1 µM, first compound 3.16 µM): 24.2%
viability, T/C (second compound 0.1 µM, first compound 10 µM): 2.89%
viability, T/C [17]: 52.6%
viability, T/C [18]: 43.1%
viability, T/C [19]: 20.6%
viability, T/C [20]: 24.3%
viability, T/C (second compound 0.316 µM, first compound 3.16 µM): 18.1%
viability, T/C (second compound 0.316 µM, first compound 10 µM): 3.81%
viability, T/C [21]: 60.8%
viability, T/C [22]: 36%
viability, T/C [23]: 26.4%
viability, T/C [24]: 25.4%
viability, T/C (second compound 1 µM, first compound 3.16 µM): 22.6%
viability, T/C (second compound 1 µM, first compound 10 µM): 4.16%

pIC50 (second compound 0.000949 µM): 8.89
pIC50 (second compound 0.003 µM): 8.68
pIC50 (second compound 0.00949 µM): 8.59
pIC50 (second compound 0.03 µM): 8.54
pIC50 (second compound 0.0949 µM): 8.85
pIC50 (second compound 0.3 µM): 8.83
SMILES: CC(C)n1nc(-c2ccc3oc(N)nc3c2)c2c(N)ncnc21 + CCn1c(-c2cccnc2C(C)OC)c2c3cc(ccc31)N1CCOC(CC(NC(=O)C(C(C)C)N(C)C(=O)C3(F)CCN(C(=O)C#CC(C)(C)N(C)C)CC3)C(=O)N3CCCC(N3)C(=O)OCC(C)(C)C2)C1
viability, T/C (second compound 0.000949 µM, first compound 0.000316 µM): 97.3%
viability, T/C (second compound 0.000949 µM, first compound 0.001 µM): 54.3%
viability, T/C (second compound 0.000949 µM, first compound 0.00316 µM): 33.3%
viability, T/C (second compound 0.000949 µM, first compound 0.01 µM): 10.8%
viability, T/C (second compound 0.000949 µM, first compound 0.0316 µM): 6.42%
viability, T/C (second compound 0.000949 µM, first compound 0.1 µM): 5.48%
viability, T/C (second compound 0.003 µM, first compound 0.000316 µM): 91.7%
viability, T/C (second compound 0.003 µM, first compound 0.001 µM): 70.3%
viability, T/C (second compound 0.003 µM, first compound 0.00316 µM): 39.7%
viability, T/C (second compound 0.003 µM, first compound 0.01 µM): 12.8%
viability, T/C (second compound 0.003 µM, first compound 0.0316 µM): 6.14%
viability, T/C (second compound 0.003 µM, first compound 0.1 µM): 5.04%
viability, T/C (second compound 0.00949 µM, first compound 0.000316 µM): 91.2%
viability, T/C (second compound 0.00949 µM, first compound 0.001 µM): 82.2%
viability, T/C (second compound 0.00949 µM, first compound 0.00316 µM): 42.7%
viability, T/C (second compound 0.00949 µM, first compound 0.01 µM): 13.9%
viability, T/C (second compound 0.00949 µM, first compound 0.0316 µM): 6.63%
viability, T/C (second compound 0.00949 µM, first compound 0.1 µM): 5.25%
viability, T/C (second compound 0.03 µM, first compound 0.000316 µM): 98.7%
viability, T/C (second compound 0.03 µM, first compound 0.001 µM): 81.4%
viability, T/C (second compound 0.03 µM, first compound 0.00316 µM): 47.7%
viability, T/C (second compound 0.03 µM, first compound 0.01 µM): 16.8%
viability, T/C (second compound 0.03 µM, first compound 0.0316 µM): 6.13%
viability, T/C (second compound 0.03 µM, first compound 0.1 µM): 5.01%
viability, T/C (second compound 0.0949 µM, first compound 0.000316 µM): 90.4%
viability, T/C (second compound 0.0949 µM, first compound 0.001 µM): 55.9%
viability, T/C (second compound 0.0949 µM, first compound 0.00316 µM): 35.7%
viability, T/C (second compound 0.0949 µM, first compound 0.01 µM): 13.3%
viability, T/C (second compound 0.0949 µM, first compound 0.0316 µM): 7.14%
viability, T/C (second compound 0.0949 µM, first compound 0.1 µM): 4.64%
viability, T/C (second compound 0.3 µM, first compound 0.000316 µM): 67.4%
viability, T/C (second compound 0.3 µM, first compound 0.001 µM): 64.7%
viability, T/C (second compound 0.3 µM, first compound 0.00316 µM): 22%
viability, T/C (second compound 0.3 µM, first compound 0.01 µM): 10.9%
viability, T/C (second compound 0.3 µM, first compound 0.0316 µM): 6.85%
viability, T/C (second compound 0.3 µM, first compound 0.1 µM): 4.69%

pIC50 (second compound 0.00316 µM): 7.76
pIC50 (second compound 0.01 µM): 7.63
pIC50 (second compound 0.0316 µM): 7.52
pIC50 (second compound 0.1 µM): 7.95
pIC50 (second compound 0.316 µM): 7.68
pIC50 (second compound 1 µM): 7.85
SMILES: CCN1CCN(Cc2ccc(Nc3ncc(F)c(-c4cc(F)c5nc(C)n(C(C)C)c5c4)n3)nc2)CC1 + C=CC(=O)N1CCN(c2nc(OCC3CCCN3C)nc3c(F)c(-c4nc(N)cc(C)c4C(F)(F)F)c(Cl)cc23)C(C)C1
viability, T/C (second compound 0.00316 µM, first compound 0.00316 µM): 77.6%
viability, T/C (second compound 0.00316 µM, first compound 0.01 µM): 62.2%
viability, T/C [1]: 35.9%
viability, T/C [2]: 25.7%
viability, T/C [3]: 20.9%
viability, T/C [4]: 15.7%
viability, T/C (second compound 0.01 µM, first compound 0.00316 µM): 89.4%
viability, T/C (second compound 0.01 µM, first compound 0.01 µM): 71.3%
viability, T/C [5]: 43.4%
viability, T/C [6]: 22.1%
viability, T/C [7]: 22.5%
viability, T/C [8]: 17%
viability, T/C (second compound 0.0316 µM, first compound 0.00316 µM): 78.8%
viability, T/C (second compound 0.0316 µM, first compound 0.01 µM): 96.2%
viability, T/C [9]: 48.4%
viability, T/C [10]: 22.5%
viability, T/C [11]: 21.6%
viability, T/C [12]: 17.5%
viability, T/C (second compound 0.1 µM, first compound 0.00316 µM): 72.8%
viability, T/C (second compound 0.1 µM, first compound 0.01 µM): 51.2%
viability, T/C [13]: 35.6%
viability, T/C [14]: 20.6%
viability, T/C [15]: 20.8%
viability, T/C [16]: 17.4%
viability, T/C (second compound 0.316 µM, first compound 0.00316 µM): 82.8%
viability, T/C (second compound 0.316 µM, first compound 0.01 µM): 74%
viability, T/C [17]: 35.2%
viability, T/C [18]: 34.3%
viability, T/C [19]: 25.2%
viability, T/C [20]: 18.1%
viability, T/C (second compound 1 µM, first compound 0.00316 µM): 61.5%
viability, T/C (second compound 1 µM, first compound 0.01 µM): 49.1%
viability, T/C [21]: 46.7%
viability, T/C [22]: 29%
viability, T/C [23]: 22.1%
viability, T/C [24]: 19.1%
